In data set [1] the test system is STZ diabetic rats. As to the kind of experiment: Haemodynamics in streptozotocin diabetic rats (echocardiography). Format: in vivo, rat. The protocol: CVie214 and CVie216 were tested in a diabetic rat model. Briefly, rats were injected with streptozotocin (STZ). After 7-9 weeks from STZ injection, rats were submitted to transthoracic echocardiographic and Doppler evaluation performed under urethane anesthesia. Two-dimensionally guided M-mode recordings were used to obtain short-axis measurements of left ventricular end-diastolic diameter (LVEDD), left ventricular end-systolic diameter (LVESD), posterior (PW) and septal (SW) diastolic wall thickness according to the American Society of Echocardiography guidelines (Lang R M et al., Eur J Echocardiography 2006, 7:79-108). Fractional shortening was calculated as FS=(LVEDD−LVESD)/LVEDD. Relative wall thickness was calculated as PWTd+IVSTd/LVEDD. Mitral inflow was measured by pulsed Doppler at the tips of mitral leaflets from an apical 4-chamber view to obtain early and late filling velocities (E, A) and deceleration time of early filling velocity (DT). The deceleration slope was calculated as E/DT ratio. The mitral deceleration index was calculated as DT/E ratio. Tissue Doppler Imaging (TDI) was evaluated from the apical 4-chamber view to record septal mitral annular movements, i.e., peak myocardial systolic (s′) and early and late diastolic velocity (e′ and a′).
After baseline hemodynamic measurements were taken, the rats were administered Digoxin, CVie214, CVie216 and compared to control. Digoxin, used as reference drug, was intravenously infused at 0.11 mg/kg/min for 15 min and echocardiographic parameters measured after 1 h. CVie214-salt and CVie216-salt were intravenously infused in STZ diabetic rats at 0.2 mg/kg/min and echocardiographic parameters were measured after 15 min and 30 min.
Tables 4-6 show the haemodynamic parameters in STZ diabetic rats for Digoxin, CVie214-salt, and Cvie216-salt.

Data set [2] has as its target dog renal Na^+/K^+ ATPase (Canis lupus familiaris (Dog) (Canis familiaris), UniProt P50997). The conditions noted are these: read-out: IC50 inhibition of dog renal Na+/K+ ATPase; purified dog kidney enzyme.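 Further: enzyme preincubated with inhibitor 10 min at 37 °C, then K^+ and ^32P-ATP added for 15 min, released ^32P counted, activity relative to untreated control.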
Description: Inhibition of Dog Renal Na^+/K^+ ATPase Activity
The compounds were thus tested for their inhibitory effect on the canine renal Na^+/K^+ ATPase enzyme.
Kidneys were excised from 1-3 year-old male beagle dogs (WuXi AppTec, Suzhou Co., Ltd. 1318 Wuzhong Ave., Wuzhong District Suzhou, 215104 P.R. China) under pentobarbital anesthesia (Import Authorization from Italian Health Ministry 0009171-09/04/2015-DGSAF-COD_UO-P, 2015). Kidneys were sliced and the outer medulla was dissected and suspended (1 g/10 ml) in a sucrose-histidine solution containing 250 mM sucrose, 30 mM histidine, and 5 mM EDTA, pH 7.2. The tissue was homogenized by using an Ultra Turrax homogenizer. The sample was centrifuged at 6,000 g for 15 min. Next, the supernatant was decanted and centrifuged at 48,000 g for 30 min. The pellet was suspended in the sucrose-histidine buffer and incubated for 20 min with a sodium-dodecyl-sulphate (SDS) solution dissolved in a gradient buffer containing 25 mM imidazole and 1 mM EDTA, pH 7.5. The sample was layered on the top of a sucrose discontinuous gradient (10, 15, and 29.4%) and centrifuged at 60,000 g for 115 min. The pellet was suspended in the gradient buffer.
Increasing concentrations of the standard ouabain, or tested compound, were incubated with 0.3 μg of purified dog kidney enzyme for 10 min at 37° C. in 120 μl final volume of a medium containing 140 mM NaCl, 3 mM MgCl2, 50 mM Hepes-Tris, 3 mM ATP, pH 7.5. Then, 10 μl of a solution containing 10 mM KCl and 20 nCi of ^32P-ATP (3-10 Ci/mmol, Perkin Elmer) were added. The reaction was allowed to continue for 15 min at 37° C. and then stopped by acidification with 20% v/v ice-cold perchloric acid. ^32P was separated by centrifugation with activated Charcoal (Norit A, Serva) and the radioactivity was counted. The inhibitory activity was expressed as percent of the control samples carried out in the absence of ouabain, or tested compound.
Data set [3] concerns the target SERCA2a (Cavia porcellus, UniProt A0A286XD73). Conditions: literature; cited from earlier work.
For data set [4], the system named is rat ventricular myocytes isolated from STZ rats. Conditions: literature; cited from earlier work.
The test system of data set [5] is mouse (Albino Swiss CD-1). The conditions noted are these: data from literature, cited from earlier work.
Setting [6] is: after 15 min Digoxin IV infusion 0.11 mg/kg/min.

Read-outs that look alike come from different tables or passages of the source.

SERCA2a, sequence (A0A286XD73 1-997): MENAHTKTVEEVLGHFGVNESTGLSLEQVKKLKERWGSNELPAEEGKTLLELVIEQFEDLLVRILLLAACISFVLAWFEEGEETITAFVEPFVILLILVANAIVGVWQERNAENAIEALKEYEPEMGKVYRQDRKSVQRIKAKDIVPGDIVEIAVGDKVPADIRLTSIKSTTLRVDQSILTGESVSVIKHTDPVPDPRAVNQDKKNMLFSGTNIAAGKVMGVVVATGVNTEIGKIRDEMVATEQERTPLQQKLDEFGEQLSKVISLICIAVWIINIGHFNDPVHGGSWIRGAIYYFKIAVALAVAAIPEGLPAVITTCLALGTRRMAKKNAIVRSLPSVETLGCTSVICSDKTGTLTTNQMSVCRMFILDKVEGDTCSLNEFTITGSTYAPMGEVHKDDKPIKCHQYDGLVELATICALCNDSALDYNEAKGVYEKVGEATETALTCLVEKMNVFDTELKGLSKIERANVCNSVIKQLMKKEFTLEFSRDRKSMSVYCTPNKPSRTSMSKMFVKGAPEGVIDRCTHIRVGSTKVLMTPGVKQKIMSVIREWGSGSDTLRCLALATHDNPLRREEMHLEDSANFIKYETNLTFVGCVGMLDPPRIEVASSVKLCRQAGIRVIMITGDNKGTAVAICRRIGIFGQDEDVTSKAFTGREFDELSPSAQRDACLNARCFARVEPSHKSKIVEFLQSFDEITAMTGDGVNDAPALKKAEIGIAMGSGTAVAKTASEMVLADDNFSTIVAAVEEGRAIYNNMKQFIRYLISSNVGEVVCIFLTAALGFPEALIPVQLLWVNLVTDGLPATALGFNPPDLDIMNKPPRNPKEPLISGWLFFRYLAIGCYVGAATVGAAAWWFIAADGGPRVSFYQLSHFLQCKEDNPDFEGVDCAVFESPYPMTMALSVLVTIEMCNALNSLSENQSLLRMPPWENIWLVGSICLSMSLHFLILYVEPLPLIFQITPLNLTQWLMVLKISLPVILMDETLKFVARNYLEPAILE

The LD50 is the dose expected to kill half of the subjects tested. For `C[C@H]1O[C@@H](O[C@H]2[C@@H](O)C[C@H](O[C@H]3[C@@H](O)C[C@H](O[C@H]4CC[C@@]5(C)[C@H](CC[C@@H]6[C@@H]5C[C@@H](O)[C@]5(C)[C@@H](C7=CC(=O)OC7)CC[C@]65O)C4)O[C@@H]3C)O[C@@H]2C)C[C@H](O)[C@@H]1O` [Digoxin, reference compound], in data set [1] (IV infusion), the “diastolic function (in words)” value is given as “ameliorated diastolic function”; the “overall cardiac function, SV and CO (in words)” value is “did not affect”. Moreover, in data set [1] (setting [6]), the “A late filling velocity of mitral inflow” value turned out to be 0.79 ± 0.19 m/s, the CO cardiac output worked out at 155.6 ± 45.7 mL/min, the “DT deceleration time of E wave” value came to 44.1 ± 10.29 ms and the “DT/E mitral deceleration index” value stood at 50.18 ± 17.05 s2/m. For the same molecule, in data set [1] (setting [6]), the “E early filling velocity of mitral inflow” value is recorded as 0.92 ± 0.19 m/s, the “E/A index of LV function” value came out at 1.20 ± 0.21, the E/DT deceleration slope came out at 22.66 ± 9.56 m/s2 and the “E/e′ index of LV filling pressure” value stood at 38.95 ± 7.31. In data set [1] (setting [6]), the FS fractional shortening is reported as 53.1 ± 5.6*6%, the HR heart rate was found to be 257 ± 36 beat/min, the SV stroke volume was determined as 0.6 ± 0.12 ml/beat and the “a′ TDI late relaxation velocity” value was found to be 29.78 ± 6.17 cm/s. In data set [1] (setting [6]), the “e′ TDI early relaxation velocity” value is 23.82 ± 2.87 cm/s and the “s′ TDI contraction velocity” value is given as 26.03 ± 4.66 cm/s. In addition, the IC50 in data set [2] was determined as 180 nM. In addition, in data set [3], the “stimulation of SERCA2a activity (in words)” value is listed as “failed to stimulate”. The “effect detected by the SR loading protocol” value in data set [4] is “did not detect any effect”. Moreover, the median lethal dose (LD50) in data set [5] (iv) is reported as 7.7 mg/kg. Further, the LD50 in data set [5] (os) is 17.8 mg/kg.
